The nature of assay [1]: Inhibition of neuraminidase in Influenza A virus A/Babol/36/2005 H3N2 using MUNANA as substrate incubated for 40 mins by […] based assay.
Assay [2] can be described thus: Inhibition of neuraminidase in Influenza A virus A/Goose/Guangdong/SH7/2013 H5N1 using MUNANA as substrate incubated for 40 mins by […] based assay.

pIC50: −log10 of the molar value.

In the case of `CCC(CC)O[C@@H]1C=C(C(=O)O)C[C@H](NCc2ccc(-c3cccs3)cc2OC)[C@H]1NC(C)=O`, the pIC50 (as a rule, the negative decadic logarithm of the IC50, by convention in mol/L) in assay [1] was 5.68; in assay [2] it was 5.78. For `CCC(CC)O[C@@H]1C=C(C(=O)O)C[C@H](NCc2ccc(-c3ccsc3)cc2OC)[C@H]1NC(C)=O`, in that order: 5.07 and 5.82. In the case of `CCC(CC)O[C@@H]1C=C(C(=O)O)C[C@H](NCc2cccc(C(=O)Nc3ccc(B(O)O)cc3)c2)[C@H]1NC(C)=O`, the pIC50 in assay [1] is 5.18; in assay [2] it was 5.98. `CCC(CC)O[C@@H]1C=C(C(=O)O)C[C@H](NCc2ccc(OCc3ccc(B(O)O)cc3)c(OC)c2)[C@H]1NC(C)=O`: the pIC50 is 4.54 in assay [1] and 4.29 in assay [2]. As for `CCC(CC)O[C@@H]1C=C(C(=O)O)C[C@H](NCc2ccc(OCc3cccc(B(O)O)c3)c(C)c2)[C@H]1NC(C)=O`, the pIC50 in assay [1] is 4.94; in assay [2] it was 5.09. In the case of `CCC(CC)O[C@@H]1C=C(C(=O)O)C[C@H](NCc2ccc(C(=O)Nc3ccc(B(O)O)cc3)cc2)[C@H]1NC(C)=O`, the pIC50 is 5.79 in assay [1] and 6.01 in assay [2]. With `CCC(CC)O[C@@H]1C=C(C(=O)O)C[C@H](NCc2ccc(OCc3cccc(B(O)O)c3)c(B(O)O)c2)[C@H]1NC(C)=O`, the pIC50 is 5.75 in assay [1] and 7.12 in assay [2].

Consider `CCC(CC)O[C@@H]1C=C(C(=O)O)C[C@H](NCc2ccc(Oc3ccc(B(O)O)cc3)cc2)[C@H]1NC(C)=O`, for which the pIC50 was 5.84 in assay [1] and 7.44 in assay [2]. As to `CCC(CC)O[C@@H]1C=C(C(=O)O)C[C@H](NCc2ccccc2OCc2ccc(B(O)O)cc2)[C@H]1NC(C)=O`, the pIC50 in assay [1] was 5.07; in assay [2], 5.89. For `CCC(CC)O[C@@H]1C=C(C(=O)O)C[C@H](NCc2ccc(OCc3ccc(B(O)O)cc3)c(C)c2)[C@H]1NC(C)=O` the same measures were 4.78 and 5.09. For the compound `CCC(CC)O[C@@H]1C=C(C(=O)O)C[C@H](NCc2cccc(OCc3cccc(B(O)O)c3)c2)[C@H]1NC(C)=O`, the values for the pIC50 in assay [1] and in assay [2] were 5.36 and 5.31, respectively. Regarding `CCC(CC)O[C@@H]1C=C(C(=O)O)C[C@H](NCc2cccc(OCc3ccccc3B(O)O)c2)[C@H]1NC(C)=O`, the figures for the pIC50 in assay [1] and in assay [2] were 5.10 and 5.15, respectively.

For the compound `CCC(CC)O[C@@H]1C=C(C(=O)O)C[C@H](NCc2ccc(Oc3cccc(B(O)O)c3)cc2)[C@H]1NC(C)=O`, the pIC50 is 6.12 in assay [1] and 6.85 in assay [2]. For `CCC(CC)O[C@@H]1C=C(C(=O)O)C[C@H](NCc2cc(C)c(OCc3cccc(B(O)O)c3)c(C)c2)[C@H]1NC(C)=O`, the results for the pIC50 in assay [1] and in assay [2] were 5.06 and 4.49, respectively.

Turning to `CCC(CC)O[C@@H]1C=C(C(=O)O)C[C@H](NCc2ccccc2OCc2cccc(B(O)O)c2)[C@H]1NC(C)=O`, the pIC50 in assay [1] is 5.29; in assay [2] it was 5.83. Take `CCC(CC)O[C@@H]1C=C(C(=O)O)C[C@H](NCc2ccc(OCc3cccc(B(O)O)c3)c(OC)c2)[C@H]1NC(C)=O`: the negative logarithm of the IC50 (pIC50) in assay [1] was 4.63; in assay [2], 4.36.

With `CCC(CC)O[C@@H]1C=C(C(=O)O)C[C@H](NCc2ccc(C(=O)Nc3cccc(B(O)O)c3)cc2)[C@H]1NC(C)=O`, the results for the pIC50 in assay [1] and in assay [2] were 4.77 and 5.93, respectively. Turning to `CCC(CC)O[C@@H]1C=C(C(=O)O)C[C@H](NCc2cc(C)c(OCc3ccc(B(O)O)cc3)c(C)c2)[C@H]1NC(C)=O`, the negative logarithm of the IC50 (pIC50) was 4.38 in assay [1] and 4.72 in assay [2]. Turning to `CCC(CC)O[C@@H]1C=C(C(=O)O)C[C@H](NCc2cccc(OCc3ccc(B(O)O)cc3)c2)[C@H]1NC(C)=O`, the pIC50 was 5.48 in assay [1] and 5.94 in assay [2]. For the compound `CCC(CC)O[C@@H]1C=C(C(=O)O)C[C@H](NCc2cccc(C(=O)Nc3cccc(B(O)O)c3)c2)[C@H]1NC(C)=O`, the pIC50 in assay [1] is 6.64; in assay [2], 6.39.

Take `CC(=O)N[C@H]1[C@H]([C@H](O)[C@H](O)CO)OC(C(=O)O)=C[C@@H]1NC(=N)N` [ZANAMIVIR]: the pIC50 in assay [1] was 7.42.

The record behind these values is ChEMBL document CHEMBL6078687 (J Med Chem, 2024).
